Data as given in patent US6448240B1, “Synergistic fungicidal and/or bactericidal composition” (Aventis CropScience, S.A., priority 1997, dated 2002).

Tested on: Plasmopara viticola (grapevine downy mildew)
Experiment: In-vivo test of famoxadone and fosetyl-aluminium on grapevine downy mildew, preventative treatment 5 days before inoculation
Parameters: species or system Plasmopara viticola on Vitis vinifera cv. Chardonnay
Details: 5-day-preventative spray on grapevine cuttings; evaluated 7 days after inoculation; 3 replications
Method: Example 1: In-vivo test of the combination of famoxadone and fosetyl-aluminium on Plasmopara viticola (grapevine downy mildew) by preventative treatment 5 days before inoculation. Dispersible granules of 50% compound A (famoxadone) and dispersible granules of 80% compound B (fosetyl-aluminium) are used. Dilute suspensions are prepared from these compositions by diluting them with water, and the two liquids are mixed in such a way that different ratios of the two products famoxadone and fosetyl are obtained. The A/B ratios studied were selected between 1/10 and 1/1, that is to say equalling 0.1-0.2 and 1. Grapevine cuttings (Vitis vinifera), cv. Chardonnay are grown in pots. When these plants are 2 months old (8- to 10-leaf stage, height 10 to 15 cm), they are treated by being sprayed with the suspension above. […] These spores are suspended at 100,000 units per cm^3 of inoculum. Inoculation is performed by spraying the underside of the leaves with the inoculum. The inoculated plants are then incubated for seven days at 20-22° C. and a relative humidity of 90-100% under natural light. The test is evaluated 7 days after inoculation by comparing the plants with the control plants.

Row | Compound | ED70 (effective dose which has a 70% control effect on the disease) [µg/mL] | ED90 (effective dose which has a 90% control effect on the disease) [µg/mL]
1 | C[C@@]1(c2ccc(Oc3ccccc3)cc2)OC(=O)N(Nc2ccccc2)C1=O (racemic) [famoxadone, 5-methyl-5-(4-phenoxyphenyl)-3-(phenylamino-2,4-oxazolidinedione)] | 2 | 5.5
2 | CCO[PH](=O)O [fosetyl - aluminium, fosetyl-aluminium] | >2000 | >2000
